Columns and labels:
Assay in all cases: Post-emergence herbicidal action against harmful plants (greenhouse)
Type in all cases: in vivo
Setaria viridis (SETVI) = test system: Setaria viridis (SETVI)
Experimental: (§1) Seeds of monocotyledonous and dicotyledonous weed and crop plants are laid out in sandy loam soil in wood-fibre pots, covered with soil and cultivated in a greenhouse under good growth conditions. 2 to 3 weeks after sowing, the test plants are treated at the one-leaf stage. The compounds of the invention, formulated in the form of wettable powders (WP) or as emulsion concentrates (EC), are then sprayed onto the green parts of the plants in the form of an aqueous suspension or emulsion at a water application rate equivalent to 600 to 800 l/ha, with addition of 0.2% wetting agent. After the test plants have been […], the action of the preparations is assessed visually in comparison to untreated controls (herbicidal action in percent (%): 100% activity=the plants have died, 0% activity=like control plants). […] The tables below illustrate, in an illustrative manner, the post-emergence herbicidal action of the compounds of the invention, the herbicidal activity being stated in percent.
(§2) In the tables that follow, the abbreviations mean the following: • E: means the synergism value to be expected according to the Colby formula. • Δ SYN: means the difference between the actual and expected synergism value. • DAT: means days after treatment.

[1] = test system: Euphorbia heterophylla (EPHHL); settings: EPHHL 21 DAT
Experimental: (§3) Seeds of monocotyledonous and dicotyledonous weed and crop plants are laid out in sandy loam soil in wood-fibre pots, covered with soil and cultivated in a greenhouse under good growth conditions. 2 to 3 weeks after sowing, the test plants are treated at the one-leaf stage. The compounds of the invention, formulated in the form of wettable powders (WP) or as emulsion concentrates (EC), are then sprayed onto the green parts of the plants in the form of an aqueous suspension or emulsion at a water application rate equivalent to 600 to 800 l/ha, with addition of 0.2% wetting agent. After the test plants have been left to stand in the greenhouse under optimal growth conditions for about 3 weeks, the action of the preparations is assessed visually in comparison to untreated controls (herbicidal action in percent (%): 100% activity=the plants have died, 0% activity=like control plants). […] The tables below illustrate, in an illustrative manner, the post-emergence herbicidal action of the compounds of the invention, the herbicidal activity being stated in percent.
as §2

Emex australis (EMEAU) = test system: Emex australis (EMEAU)
Experimental: as §3, §2

[2] = test system: Pharbitis purpurea (PHBPU)
[3] = test system: Polygonum convolvulus (POLCO)
[4] = test system: Abutilon theophrasti (ABUTH)
Experimental: as §1, §2

Cyperus iria (CYPIR) = test system: Cyperus iria (CYPIR)
Experimental: as §1, §2

Solanum nigrum (SOLNI) = test system: Solanum nigrum (SOLNI)
Experimental: as §1, §2

[5] = test system: Erigeron bonariensis (ERIBO)
Experimental: as §1, §2

[6] = test system: Brachiaria platyphylla (BRAPP)
Experimental: as §3, §2

[7] = test system: Sorghum halepense (SORHA)
Experimental: as §3, §2

[8] = test system: Xanthium strumarium (XANST); settings: application rate 1 g a.i./ha
[9] = application rate 0.25 g a.i./ha

CCOC(=O)C1(C)CC(c2cc(-n3c(=O)cc(C(F)(F)F)n(C)c3=O)c(F)cc2Cl)=NO1 (stereo not shown) [P4, ethyl 3-{2-chloro-4-fluoro-5-[3-methyl-2,6-dioxo-4-(trifluoromethyl)-3,6-dihydropyrimidin-1(2H)-yl]phenyl}-5-methyl-4,5-dihydro-1,2-oxazole-5-carboxylate]
Herbicidal efficacy (Setaria viridis (SETVI); SETVI 10 DAT, 1 g a.i./ha): 88% | Herbicidal efficacy (Setaria viridis (SETVI); SETVI 21 DAT, 1 g a.i./ha): 80% | Herbicidal efficacy ([1]; 1 g a.i./ha): 80% | Herbicidal efficacy (Emex australis (EMEAU); EMEAU 21 DAT, 1 g a.i./ha): 70%

FC(F)c1cc(-c2c(Cl)cccc2Oc2ncc(Cl)cn2)on1 [rimisoxafen]
Herbicidal efficacy ([2]; PHBPU 10 DAT, 20 g a.i./ha): 30% | Herbicidal efficacy ([2]; PHBPU 21 DAT, 20 g a.i./ha): 20% | Herbicidal efficacy ([3]; POLCO 21 DAT, 20 g a.i./ha): 60% | Herbicidal efficacy ([3]; POLCO 21 DAT, 80 g a.i./ha): 88% | Herbicidal efficacy (Setaria viridis (SETVI); SETVI 21 DAT, 20 g a.i./ha): 30% | Herbicidal efficacy ([4]; ABUTH 10 DAT, 20 g a.i./ha): 88% | Herbicidal efficacy ([4]; ABUTH 21 DAT, 20 g a.i./ha): 40% | Herbicidal efficacy (Cyperus iria (CYPIR); CYPIR 21 DAT, 20 g a.i./ha): 88% | Herbicidal efficacy [%] against SOLNI 10 DAT (Solanum nigrum (SOLNI); application rate 80 g a.i./ha): 88% | Herbicidal efficacy [%] against SOLNI 21 DAT (Solanum nigrum (SOLNI); application rate 80 g a.i./ha): 80% | Herbicidal efficacy ([5]; ERIBO 21 DAT, 20 g a.i./ha): 10% | Herbicidal efficacy ([6]; BRAPP 10 DAT, 20 g a.i./ha): 30% | Herbicidal efficacy ([6]; BRAPP 21 DAT, 20 g a.i./ha): 20% | Herbicidal efficacy (Emex australis (EMEAU); EMEAU 10 DAT, 80 g a.i./ha): 88% | Herbicidal efficacy (Emex australis (EMEAU); EMEAU 21 DAT, 80 g a.i./ha): 80% | Herbicidal efficacy [%] against SORHA 10 DAT ([7]; application rate 20 g a.i./ha): 10% | Herbicidal efficacy [%] against SORHA 21 DAT ([7]; application rate 20 g a.i./ha): 10%

C#CCN1C(=O)C(F)(F)Oc2cc(F)c(-n3c(=O)n(C)c(=S)n(C)c3=O)cc21 [trifludimoxazin]
Herbicidal efficacy ([2]; PHBPU 21 DAT, 1 g a.i./ha): 80% | Herbicidal efficacy (Setaria viridis (SETVI); SETVI 10 DAT, 0.25 g a.i./ha): 85% | Herbicidal efficacy (Setaria viridis (SETVI); SETVI 21 DAT, 0.25 g a.i./ha): 70% | Herbicidal efficacy ([4]; ABUTH 10 DAT, 0.25 g a.i./ha): 88% | Herbicidal efficacy ([4]; ABUTH 10 DAT, 1 g a.i./ha): 85% | Herbicidal efficacy ([4]; ABUTH 21 DAT, 0.25 g a.i./ha): 80% | Herbicidal efficacy ([4]; ABUTH 21 DAT, 1 g a.i./ha): 75% | Herbicidal efficacy [%] against SOLNI 10 DAT (Solanum nigrum (SOLNI); application rate 1 g a.i./ha): 88% | Herbicidal efficacy [%] against SOLNI 21 DAT (Solanum nigrum (SOLNI); application rate 1 g a.i./ha): 60% | Herbicidal efficacy ([1]; 0.25 g a.i./ha): 88% | Herbicidal efficacy ([6]; BRAPP 10 DAT, 1 g a.i./ha): 80% | Herbicidal efficacy (Emex australis (EMEAU); EMEAU 21 DAT, 1 g a.i./ha): 85% | Herbicidal efficacy [%] against SORHA 10 DAT [7, 9]: 70% | Herbicidal efficacy [%] against SORHA 21 DAT [7, 9]: 40% | Herbicidal efficacy [%] against SORHA 10 DAT ([7]; application rate 1 g a.i./ha): 85% | Herbicidal efficacy [%] against SORHA 21 DAT ([7]; application rate 1 g a.i./ha): 70%

Nc1c(F)c(-c2ccc3cc[nH]c3c2F)nc(C(=O)O)c1Cl [P3, 4-amino-3-chloro-5-fluoro-6-(7-fluoro-1H-indol-6-yl)pyridine-2-carboxylic acid]
Herbicidal efficacy (Setaria viridis (SETVI); SETVI 21 DAT, 0.3 g a.i./ha): 70% | Herbicidal efficacy ([4]; ABUTH 21 DAT, 0.3 g a.i./ha): 60% | Herbicidal efficacy ([4]; ABUTH 21 DAT, 1.2 g a.i./ha): 60% | Herbicidal efficacy (Solanum nigrum (SOLNI); SOLNI 21 DAT, 1.2 g a.i./ha): 85% | Herbicidal efficacy ([6]; BRAPP 10 DAT, 0.3 g a.i./ha): 70% | Herbicidal efficacy ([6]; BRAPP 21 DAT, 0.3 g a.i./ha): 60% | Herbicidal efficacy ([6]; BRAPP 21 DAT, 1.2 g a.i./ha): 75% | Herbicidal efficacy (Emex australis (EMEAU); EMEAU 21 DAT, 1.2 g a.i./ha): 70% | Herbicidal efficacy [%] against SORHA 10 DAT ([7]; application rate 0.3 g a.i./ha): 30% | Herbicidal efficacy [%] against SORHA 21 DAT ([7]; application rate 0.3 g a.i./ha): 10% | Herbicidal efficacy [%] against SORHA 10 DAT ([7]; application rate 1.2 g a.i./ha): 60% | Herbicidal efficacy [%] against SORHA 21 DAT ([7]; application rate 1.2 g a.i./ha): 30%

CN1C[C@H](c2cccc(C(F)(F)F)c2)[C@@H](C(=O)Nc2ccccc2F)C1=O [tetflupyrolimet]
Herbicidal efficacy ([3]; POLCO 10 DAT, 400 g a.i./ha): 10% | Herbicidal efficacy ([3]; POLCO 21 DAT, 100 g a.i./ha): 0% | Herbicidal efficacy ([3]; POLCO 21 DAT, 400 g a.i./ha): 0% | Herbicidal efficacy ([4]; ABUTH 10 DAT, 400 g a.i./ha): 0% | Herbicidal efficacy ([4]; ABUTH 21 DAT, 400 g a.i./ha): 0% | Herbicidal efficacy (Cyperus iria (CYPIR); CYPIR 10 DAT, 400 g a.i./ha): 0% | Herbicidal efficacy (Cyperus iria (CYPIR); CYPIR 21 DAT, 400 g a.i./ha): 0% | Herbicidal efficacy [%] against SOLNI 10 DAT (Solanum nigrum (SOLNI); application rate 400 g a.i./ha): 10% | Herbicidal efficacy [%] against SOLNI 21 DAT (Solanum nigrum (SOLNI); application rate 400 g a.i./ha): 0% | Herbicidal efficacy ([6]; BRAPP 21 DAT, 400 g a.i./ha): 70% | Herbicidal efficacy [%] against SORHA 10 DAT ([7]; application rate 100 g a.i./ha): 10% | Herbicidal efficacy [%] against SORHA 21 DAT ([7]; application rate 100 g a.i./ha): 0%

COc1c(Cl)ccc(-c2nc(C(=O)O)c(Cl)c(N)c2F)c1F [florpyrauxifen]
Herbicidal efficacy ([3]; POLCO 10 DAT, 1.2 g a.i./ha): 90% | Herbicidal efficacy ([3]; POLCO 21 DAT, 1.2 g a.i./ha): 90% | Herbicidal efficacy (Setaria viridis (SETVI); SETVI 10 DAT, 0.3 g a.i./ha): 30% | Herbicidal efficacy (Setaria viridis (SETVI); SETVI 21 DAT, 0.3 g a.i./ha): 40% | Herbicidal efficacy ([4]; ABUTH 21 DAT, 0.3 g a.i./ha): 90% | Herbicidal efficacy ([1]; 0.3 g a.i./ha): 90% | Herbicidal efficacy ([6]; BRAPP 10 DAT, 0.3 g a.i./ha): 75% | Herbicidal efficacy ([6]; BRAPP 21 DAT, 0.3 g a.i./ha): 60% | Herbicidal efficacy (Emex australis (EMEAU); EMEAU 21 DAT, 1.2 g a.i./ha): 75% | Herbicidal efficacy [%] against SORHA 10 DAT ([7]; application rate 0.3 g a.i./ha): 10%

COC(=O)CCNC(=O)C(C)Sc1cc(-n2c(=O)cc(C(F)(F)F)n(C)c2=O)c(F)cc1Cl (stereo not shown) [tiafenacil]
Herbicidal efficacy [%] against XANST 10 DAT ([8]; 10 DAT): 88% | Herbicidal efficacy [%] against XANST 21 DAT ([8]; 21 DAT): 85% | Herbicidal efficacy (Cyperus iria (CYPIR); CYPIR 21 DAT, 0.25 g a.i./ha): 88% | Herbicidal efficacy [%] against SOLNI 10 DAT (Solanum nigrum (SOLNI); application rate 1 g a.i./ha): 88% | Herbicidal efficacy [%] against SOLNI 21 DAT (Solanum nigrum (SOLNI); application rate 1 g a.i./ha): 60% | Herbicidal efficacy ([6]; BRAPP 21 DAT, 1 g a.i./ha): 40% | Herbicidal efficacy [%] against SORHA 21 DAT ([7]; application rate 1 g a.i./ha): 85%

COc1ccc(-n2nc(C)cc(C(=O)C3C(=O)CCCC3=O)c2=O)cc1OC [dioxopyritrione]
Herbicidal efficacy ([2]; PHBPU 21 DAT, 2.5 g a.i./ha): 20% | Herbicidal efficacy ([3]; POLCO 10 DAT, 2.5 g a.i./ha): 80% | Herbicidal efficacy ([3]; POLCO 10 DAT, 10 g a.i./ha): 80% | Herbicidal efficacy ([3]; POLCO 21 DAT, 10 g a.i./ha): 70% | Herbicidal efficacy (Setaria viridis (SETVI); SETVI 10 DAT, 2.5 g a.i./ha): 10% | Herbicidal efficacy (Setaria viridis (SETVI); SETVI 10 DAT, 10 g a.i./ha): 20% | Herbicidal efficacy (Setaria viridis (SETVI); SETVI 21 DAT, 2.5 g a.i./ha): 10% | Herbicidal efficacy (Setaria viridis (SETVI); SETVI 21 DAT, 10 g a.i./ha): 20% | Herbicidal efficacy ([4]; ABUTH 21 DAT, 10 g a.i./ha): 80% | Herbicidal efficacy ([5]; ERIBO 10 DAT, 10 g a.i./ha): 90% | Herbicidal efficacy ([5]; ERIBO 21 DAT, 10 g a.i./ha): 88% | Herbicidal efficacy ([6]; BRAPP 10 DAT, 2.5 g a.i./ha): 40% | Herbicidal efficacy ([6]; BRAPP 10 DAT, 10 g a.i./ha): 70% | Herbicidal efficacy ([6]; BRAPP 21 DAT, 2.5 g a.i./ha): 20% | Herbicidal efficacy ([6]; BRAPP 21 DAT, 10 g a.i./ha): 30% | Herbicidal efficacy [%] against SORHA 10 DAT ([7]; application rate 2.5 g a.i./ha): 20% | Herbicidal efficacy [%] against SORHA 21 DAT ([7]; application rate 2.5 g a.i./ha): 0% | Herbicidal efficacy [%] against SORHA 10 DAT ([7]; application rate 10 g a.i./ha): 30% | Herbicidal efficacy [%] against SORHA 21 DAT ([7]; application rate 10 g a.i./ha): 10%

From patent US20260068885A1, “HERBICIDAL COMPOSITIONS” (BAYER AKTIENGESELLSCHAFT, priority 2022, published 2026)
